Test results published in US11078202B2, “β-lactamase inhibitor and use thereof” (priority 2018, dated 2021).
Structures can show the parent of a compound that is named as a salt.

Key:
Type in all cases: cell-based
[1] = system: Klebsiella pneumoniae XNWB 0005; test: MIC assay of test compounds combined with ceftazidime (8 μg/mL); details: ceftazidime 8 μg/mL fixed
Method in brief: (§1)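 Strains were revived from −80 °C stocks on TSA, subcultured, and single colonies were resuspended in saline to OD600 0.1-0.15. After a 300-fold dilution in 1.1×CAMHB, cells were combined with diluted compound and a fixed antibiotic. Growth was assessed after 16-20 h at 35±2 °C.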

[2] = system: Pseudomonas aeruginosa XNWB 0008; test: as above; details: ceftazidime 8 μg/mL fixed
Method in brief: as §1

[3] = system: Klebsiella pneumoniae XNWB 0002; test: as above; details: ceftazidime 8 μg/mL fixed
Method in brief: as §1

[4] = system: Acinetobacter baumannii XNWB 0007; test: as above; details: ceftazidime 8 μg/mL fixed
Method in brief: as §1

[5] = system: Klebsiella pneumoniae XNWB 0004; test: as above; details: ceftazidime 8 μg/mL fixed
Method in brief: as §1

[6] = system: Klebsiella pneumoniae XNWB 0003; test: as above; details: ceftazidime 8 μg/mL fixed
Method in brief: as §1

[7] = system: Klebsiella pneumoniae XNWB 0001; test: as above; details: ceftazidime 8 μg/mL fixed
Method in brief: as §1

[8] = system: Klebsiella pneumoniae XNWB 0006; test: as above; details: ceftazidime 8 μg/mL fixed
Method in brief: as §1

[9] = system: Klebsiella pneumoniae XNWB 0005; test: MIC assay of test compounds combined with imipenem (4 μg/mL); details: imipenem 4 μg/mL fixed
Method in brief: as §1

[10] = system: Pseudomonas aeruginosa XNWB 0008; test: as above; details: imipenem 4 μg/mL fixed
Method in brief: as §1

[11] = system: Klebsiella pneumoniae XNWB 0002; test: as above; details: imipenem 4 μg/mL fixed
Method in brief: as §1

[12] = system: Acinetobacter baumannii XNWB 0007; test: as above; details: imipenem 4 μg/mL fixed
Method in brief: as §1

[13] = system: Klebsiella pneumoniae XNWB 0004; test: as above; details: imipenem 4 μg/mL fixed
Method in brief: as §1

[14] = system: Klebsiella pneumoniae XNWB 0003; test: as above; details: imipenem 4 μg/mL fixed
Method in brief: as §1

[15] = system: Klebsiella pneumoniae XNWB 0001; test: as above; details: imipenem 4 μg/mL fixed
Method in brief: as §1

[16] = system: Klebsiella pneumoniae XNWB 0006; test: as above; details: imipenem 4 μg/mL fixed
Method in brief: as §1

SMILES: N=C(N)NCCc1nnc([C@@H]2CC3(CC3)[C@@H]3CN2C(=O)N3OS(=O)(=O)O)o1 [Example 5, (1R,4S)-4-(5-(2-guanidinoethyl)-1,3,4-oxadiazol-2-yl)-6-oxo-5,7-diazaspiro[bicycle [3.2.1]octane-2,1′-cyclopropan]-7-yl sulfate]
- The minimum concentration of test compounds combined with ceftazidime (8 μg/mL) for bacteriostasis [1]: B (B: 8-16 μg/mL)
- The minimum concentration of test compounds combined with ceftazidime (8 μg/mL) for bacteriostasis [2]: C (C: 16-128 μg/mL)
- The minimum concentration of test compounds combined with ceftazidime (8 μg/mL) for bacteriostasis [3]: A (A: <8 μg/mL)
- The minimum concentration of test compounds combined with ceftazidime (8 μg/mL) for bacteriostasis [4]: C (C: 16-128 μg/mL)
- The minimum concentration of test compounds combined with ceftazidime (8 μg/mL) for bacteriostasis [5]: B (B: 8-16 μg/mL)
- The minimum concentration of test compounds combined with ceftazidime (8 μg/mL) for bacteriostasis [6]: A (A: <8 μg/mL)
- The minimum concentration of test compounds combined with ceftazidime (8 μg/mL) for bacteriostasis [7]: A (A: <8 μg/mL)
- The minimum concentration of test compounds combined with ceftazidime (8 μg/mL) for bacteriostasis [8]: A (A: <8 μg/mL)
- The minimum concentration of test compounds combined with imipenem (4 μg/mL) for bacteriostasis [9]: A (A: <8 μg/mL)
- The minimum concentration of test compounds combined with imipenem (4 μg/mL) for bacteriostasis [10]: B (B: 8-16 μg/mL)
- The minimum concentration of test compounds combined with imipenem (4 μg/mL) for bacteriostasis [11]: A (A: <8 μg/mL)
- The minimum concentration of test compounds combined with imipenem (4 μg/mL) for bacteriostasis [12]: B (B: 8-16 μg/mL)
- The minimum concentration of test compounds combined with imipenem (4 μg/mL) for bacteriostasis [13]: A (A: <8 μg/mL)
- The minimum concentration of test compounds combined with imipenem (4 μg/mL) for bacteriostasis [14]: A (A: <8 μg/mL)
- The minimum concentration of test compounds combined with imipenem (4 μg/mL) for bacteriostasis [15]: A (A: <8 μg/mL)
- The minimum concentration of test compounds combined with imipenem (4 μg/mL) for bacteriostasis [16]: A (A: <8 μg/mL)

SMILES: CNCCc1nnc([C@@H]2CC3(CC3)[C@@H]3CN2C(=O)N3OS(=O)(=O)O)o1 [Example 24, (1R,4S)-4-(5-(2-(methylamino)ethyl)-1,3,4-oxadiazol-2-yl)-6-oxo-5,7-diazaspiro[bicyclo[3.2.1]octane-2,1′-cyclopropan]-7-yl sulfate]
- The minimum concentration of test compounds combined with ceftazidime (8 μg/mL) for bacteriostasis [1]: A (A: <8 μg/mL)
- The minimum concentration of test compounds combined with ceftazidime (8 μg/mL) for bacteriostasis [2]: C (C: 16-128 μg/mL)
- The minimum concentration of test compounds combined with ceftazidime (8 μg/mL) for bacteriostasis [3]: A (A: <8 μg/mL)
- The minimum concentration of test compounds combined with ceftazidime (8 μg/mL) for bacteriostasis [4]: C (C: 16-128 μg/mL)
- The minimum concentration of test compounds combined with ceftazidime (8 μg/mL) for bacteriostasis [5]: A (A: <8 μg/mL)
- The minimum concentration of test compounds combined with ceftazidime (8 μg/mL) for bacteriostasis [6]: A (A: <8 μg/mL)
- The minimum concentration of test compounds combined with ceftazidime (8 μg/mL) for bacteriostasis [7]: A (A: <8 μg/mL)
- The minimum concentration of test compounds combined with ceftazidime (8 μg/mL) for bacteriostasis [8]: A (A: <8 μg/mL)
- The minimum concentration of test compounds combined with imipenem (4 μg/mL) for bacteriostasis [9]: A (A: <8 μg/mL)
- The minimum concentration of test compounds combined with imipenem (4 μg/mL) for bacteriostasis [10]: B (B: 8-16 μg/mL)
- The minimum concentration of test compounds combined with imipenem (4 μg/mL) for bacteriostasis [11]: A (A: <8 μg/mL)
- The minimum concentration of test compounds combined with imipenem (4 μg/mL) for bacteriostasis [12]: A (A: <8 μg/mL)
- The minimum concentration of test compounds combined with imipenem (4 μg/mL) for bacteriostasis [13]: A (A: <8 μg/mL)
- The minimum concentration of test compounds combined with imipenem (4 μg/mL) for bacteriostasis [14]: A (A: <8 μg/mL)
- The minimum concentration of test compounds combined with imipenem (4 μg/mL) for bacteriostasis [15]: A (A: <8 μg/mL)
- The minimum concentration of test compounds combined with imipenem (4 μg/mL) for bacteriostasis [16]: A (A: <8 μg/mL)

SMILES: N=C1NCC(c2nnc([C@@H]3CC4(CC4)[C@@H]4CN3C(=O)N4OS(=O)(=O)O)o2)N1 (stereo partly drawn) [Example 8, (1R,4S)-4-(5-(2-iminoimidazolidin-4-yl)-1,3,4-oxadiazol-2-yl)-6-oxo-5,7-diazaspiro [bicyclo[3.2.1]octane-2,1′-cyclopropan]-7-yl sulfate]
- The minimum concentration of test compounds combined with ceftazidime (8 μg/mL) for bacteriostasis [1]: A (A: <8 μg/mL)
- The minimum concentration of test compounds combined with ceftazidime (8 μg/mL) for bacteriostasis [2]: B (B: 8-16 μg/mL)
- The minimum concentration of test compounds combined with ceftazidime (8 μg/mL) for bacteriostasis [3]: A (A: <8 μg/mL)
- The minimum concentration of test compounds combined with ceftazidime (8 μg/mL) for bacteriostasis [4]: C (C: 16-128 μg/mL)
- The minimum concentration of test compounds combined with ceftazidime (8 μg/mL) for bacteriostasis [5]: A (A: <8 μg/mL)
- The minimum concentration of test compounds combined with ceftazidime (8 μg/mL) for bacteriostasis [6]: A (A: <8 μg/mL)
- The minimum concentration of test compounds combined with ceftazidime (8 μg/mL) for bacteriostasis [7]: A (A: <8 μg/mL)
- The minimum concentration of test compounds combined with ceftazidime (8 μg/mL) for bacteriostasis [8]: A (A: <8 μg/mL)
- The minimum concentration of test compounds combined with imipenem (4 μg/mL) for bacteriostasis [9]: A (A: <8 μg/mL)
- The minimum concentration of test compounds combined with imipenem (4 μg/mL) for bacteriostasis [10]: A (A: <8 μg/mL)
- The minimum concentration of test compounds combined with imipenem (4 μg/mL) for bacteriostasis [11]: A (A: <8 μg/mL)
- The minimum concentration of test compounds combined with imipenem (4 μg/mL) for bacteriostasis [12]: A (A: <8 μg/mL)
- The minimum concentration of test compounds combined with imipenem (4 μg/mL) for bacteriostasis [13]: A (A: <8 μg/mL)
- The minimum concentration of test compounds combined with imipenem (4 μg/mL) for bacteriostasis [14]: A (A: <8 μg/mL)
- The minimum concentration of test compounds combined with imipenem (4 μg/mL) for bacteriostasis [15]: A (A: <8 μg/mL)
- The minimum concentration of test compounds combined with imipenem (4 μg/mL) for bacteriostasis [16]: A (A: <8 μg/mL)

SMILES: N[C@H]1C[C@H](Cc2nnc([C@@H]3CC4(CC4)[C@@H]4CN3C(=O)N4OS(=O)(=O)O)o2)C1 [Example 20, (1R,4S)-4-(5-(((1S,3S)-3-aminocyclobutyl)methyl)-1,3,4-oxadiazol-2-yl)-6-oxo-5,7-diazaspiro[bicyclo[3.2.1]octane-2,1′-cyclopropan]-7-yl sulfate]
- The minimum concentration of test compounds combined with ceftazidime (8 μg/mL) for bacteriostasis [1]: A (A: <8 μg/mL)
- The minimum concentration of test compounds combined with ceftazidime (8 μg/mL) for bacteriostasis [2]: B (B: 8-16 μg/mL)
- The minimum concentration of test compounds combined with ceftazidime (8 μg/mL) for bacteriostasis [3]: A (A: <8 μg/mL)
- The minimum concentration of test compounds combined with ceftazidime (8 μg/mL) for bacteriostasis [4]: C (C: 16-128 μg/mL)
- The minimum concentration of test compounds combined with ceftazidime (8 μg/mL) for bacteriostasis [5]: A (A: <8 μg/mL)
- The minimum concentration of test compounds combined with ceftazidime (8 μg/mL) for bacteriostasis [6]: A (A: <8 μg/mL)
- The minimum concentration of test compounds combined with ceftazidime (8 μg/mL) for bacteriostasis [7]: A (A: <8 μg/mL)
- The minimum concentration of test compounds combined with ceftazidime (8 μg/mL) for bacteriostasis [8]: A (A: <8 μg/mL)
- The minimum concentration of test compounds combined with imipenem (4 μg/mL) for bacteriostasis [9]: A (A: <8 μg/mL)
- The minimum concentration of test compounds combined with imipenem (4 μg/mL) for bacteriostasis [10]: A (A: <8 μg/mL)
- The minimum concentration of test compounds combined with imipenem (4 μg/mL) for bacteriostasis [11]: A (A: <8 μg/mL)
- The minimum concentration of test compounds combined with imipenem (4 μg/mL) for bacteriostasis [12]: B (B: 8-16 μg/mL)
- The minimum concentration of test compounds combined with imipenem (4 μg/mL) for bacteriostasis [13]: A (A: <8 μg/mL)
- The minimum concentration of test compounds combined with imipenem (4 μg/mL) for bacteriostasis [14]: A (A: <8 μg/mL)
- The minimum concentration of test compounds combined with imipenem (4 μg/mL) for bacteriostasis [15]: A (A: <8 μg/mL)
- The minimum concentration of test compounds combined with imipenem (4 μg/mL) for bacteriostasis [16]: A (A: <8 μg/mL)

SMILES: N[C@H]1C[C@@H](c2nnc([C@@H]3CC4(CC4)[C@@H]4CN3C(=O)N4OS(=O)(=O)O)o2)C1 [Example 15, (1R,4S)-4-(5-((1S,3R)-3-aminocyclobutyl)-1,3,4-oxadiazol-2-yl)-6-oxo-5,7-diazaspiro [bicyclo[3.2.1]octane-2,1′-cyclopropan]-7-yl sulfate]
- The minimum concentration of test compounds combined with ceftazidime (8 μg/mL) for bacteriostasis [1]: A (A: <8 μg/mL)
- The minimum concentration of test compounds combined with ceftazidime (8 μg/mL) for bacteriostasis [2]: C (C: 16-128 μg/mL)
- The minimum concentration of test compounds combined with ceftazidime (8 μg/mL) for bacteriostasis [3]: A (A: <8 μg/mL)
- The minimum concentration of test compounds combined with ceftazidime (8 μg/mL) for bacteriostasis [4]: C (C: 16-128 μg/mL)
- The minimum concentration of test compounds combined with ceftazidime (8 μg/mL) for bacteriostasis [5]: B (B: 8-16 μg/mL)
- The minimum concentration of test compounds combined with ceftazidime (8 μg/mL) for bacteriostasis [6]: A (A: <8 μg/mL)
- The minimum concentration of test compounds combined with ceftazidime (8 μg/mL) for bacteriostasis [7]: A (A: <8 μg/mL)
- The minimum concentration of test compounds combined with ceftazidime (8 μg/mL) for bacteriostasis [8]: A (A: <8 μg/mL)
- The minimum concentration of test compounds combined with imipenem (4 μg/mL) for bacteriostasis [9]: A (A: <8 μg/mL)
- The minimum concentration of test compounds combined with imipenem (4 μg/mL) for bacteriostasis [10]: B (B: 8-16 μg/mL)
- The minimum concentration of test compounds combined with imipenem (4 μg/mL) for bacteriostasis [11]: A (A: <8 μg/mL)
- The minimum concentration of test compounds combined with imipenem (4 μg/mL) for bacteriostasis [12]: C (C: 16-128 μg/mL)
- The minimum concentration of test compounds combined with imipenem (4 μg/mL) for bacteriostasis [13]: A (A: <8 μg/mL)
- The minimum concentration of test compounds combined with imipenem (4 μg/mL) for bacteriostasis [14]: A (A: <8 μg/mL)
- The minimum concentration of test compounds combined with imipenem (4 μg/mL) for bacteriostasis [15]: A (A: <8 μg/mL)
- The minimum concentration of test compounds combined with imipenem (4 μg/mL) for bacteriostasis [16]: A (A: <8 μg/mL)
